Values of other authors in publication PMC11949389 (Polish Journal of Microbiology, 2025).
In brackets after ≈: the same amount, converted by molar mass.

Columns and labels:
[1] = tested on: Vancomycin-sensitive Enterococcus (VSE)
[2] = tested on: Vancomycin-resistant Enterococcus (VRE); conditions: Vancomycin-resistant Enterococcus (VRE); ref Owen et al. 2019
Staphylococcus sp. = conditions: ref Caballero Gómez et al. 2022
[3] = tested on: Methicillin-susceptible Staphylococcus aureus; conditions: ref Owen et al. 2019
[4] = tested on: Methicillin-resistant Staphylococcus aureus; conditions: Methicillin-resistant Staphylococcus aureus; ref Owen et al. 2019
[5] = tested on: Mupirocin-susceptible Staphylococcus aureus; conditions: ref Kwiatkowski et al. 2019
[6] = tested on: Mupirocin-resistant Staphylococcus aureus; conditions: ref Kwiatkowski et al. 2019
[7] = tested on: β-haemolytic Streptococcus spp.; conditions: ref Sim et al. 2019
Acinetobacter baumannii = conditions: combined with ciprofloxacin, ref Aleksic Sabo et al. (2021)
Escherichia coli = conditions: Escherichia coli; ref Owen et al. 2019; Sayout et al. 2020; Noumi et al. 2023
Klebsiella pneumoniae = conditions: ref Sayout et al. 2020, de Souza et al. 2021, Kwiatkowski et al. 2022
Malassezia pachydermatis = conditions: ref Schlemmer et al. 2019, Sim et al. 2019
Proteus mirabilis = conditions: ref Sim et al. 2019
[8] = tested on: Ciprofloxacin-resistant Pseudomonas aeruginosa; conditions: Ciprofloxacin-resistant Pseudomonas aeruginosa; ref Owen et al. 2019
Candida albicans [9] = conditions: Candida albicans; ref Sharifzadeh et al. 2019; Iraji et al. 2020; Shaban et al. 2020; Stringaro et al. 2022; Biernasiuk et al. 2022
Candida krusei = conditions: Candida krusei; ref Sharifzadeh et al. 2019; Iraji et al. 2020; Biernasiuk et al. 2022; Stringaro et al. 2022
Candida tropicalis = conditions: Candida tropicalis; ref Iraji et al. 2020; Stringaro et al. 2022
[10] = tested on: Pseudomonas aeruginosa Enterococcus faecalis; conditions: ref Mechmechani et al. 2022
Salmonella Thyphimurium = conditions: ref Giovagnoni et al. 2020
[11] = tested on: Extended-spectrum beta-lactamases Escherichia coli; conditions: ESBL Escherichia coli; ref Khan et al. 2020
Candida albicans [12] = conditions: ref Shaban et al. 2020
staphylococcal isolates = conditions: ref Sim et al. 2019
[13] = tested on: carbapenem and polymyxin-resistant Klebsiella pneumoniae; conditions: ref de Souza et al. (2021)
various microorganisms = conditions: across various microorganisms; ref Owen et al. (2019)
Salmonella Typhimurium = conditions: ref Giovagnoni et al. (2020)
Candida species = conditions: ref Stringaro et al. (2022)
[14] = tested on: amphotericin B-resistant C. albicans; conditions: varying among Candida isolates; ref Touil et al. (2020)
[15] = tested on: bacteria co-isolated with C. albicans; conditions: ref Touil et al. (2020)
HSV-2 = conditions: HSV-2, 1 mmol/l; ref Wang et al. (2020a)
HIV-1 = conditions: ref Mediouni et al. (2020)
[16] = tested on: C. albicans and co-isolated bacteria; conditions: carvacrol combined with cuminaldehyde; ref Touil et al. (2020)
TetK efflux pump = conditions: S. aureus, ref Sousa Silveira et al. (2020)
[17] = tested on: Mycobacterium biofilms, including Mycobacterium abscessus and Mycobacterium fortuitum; conditions: even at sub-MIC concentrations; ref Marini et al. (2019)
[18] = Candida auris, ref Shaban et al. 2020

Q: For `Cc1ccc(C(C)C)cc1O` [Carvacrol], which MIC/Sensitivity ([1]; Vancomycin-sensitive Enterococcus (VSE), ref Owen et al. 2019) is on record?
A: 593.37 µg/mL (≈ 3.95 mM)

Q: What about the “reduction in vancomycin’s MIC” value ([1]; binary combinations with vancomycin, VSE, ref Owen et al. (2020)) of the same compound?
A: four to eight-fold reduction

Q: What about the MIC/Sensitivity [2] of the same compound?
A: 593.369 mg/mL (≈ 3950 mM)

Q: What about the MIC/Sensitivity (Staphylococcus sp.) of the same compound?
A: 200 to 400 µg/mL

Q: What about the MIC (Staphylococcus aureus; S. aureus, ref Sousa Silveira et al. (2020)) of the same compound?
A: 256 µg/mL (≈ 1.7 mM)

Q: And the MIC/Sensitivity (Staphylococcus aureus; Staphylococcus aureus, ref Kwiatkowski et al. 2020, Sayout et al. 2020, Sousa Silveira et al. 2020, Macêdo et al. 2022, Noumi et al. 2023, Sharma et al. 2023)?
A: 256 to 3200 µg/mL

Q: And the MIC/Sensitivity [3]?
A: 297.4356 mg/mL (≈ 1980 mM)

Q: And the MIC/Sensitivity [4]?
A: 148.7178 mg/mL (≈ 990 mM)

Q: What about the MIC/Sensitivity [5] of the same compound?
A: 950 µg/mL (≈ 6.32 mM)

Q: And the MIC/Sensitivity [6]?
A: 480 µg/mL (≈ 3.2 mM)

Q: What about the MIC/Sensitivity ([7]; β-haemolytic Streptococcus spp.) of the same compound?
A: 146 to 292 µg/mL

Q: And the MIC90 ([7]; β-hemolytic Streptococcus)?
A: 292 to 400 µg/mL

Q: And the FICI (Acinetobacter baumannii)?
A: 0.25–0.32

Q: What about the MIC/Sensitivity (Campylobacter jejuni; Campylobacter jejuni, ref Šimunović et al. 2020) of the same compound?
A: 31.25 µg/mL (≈ 0.208 mM)

Q: And the MIC (Campylobacter jejuni; ref Šimunović et al. (2020))?
A: 31.25 µg/mL (≈ 0.208 mM)

Q: And the MIC/Sensitivity (Escherichia coli)?
A: 297.4356 mg/mL (≈ 1980 mM)

Q: And the MIC/Sensitivity (Klebsiella pneumoniae)?
A: 130 to 1910 µg/mL

Q: What about the MIC/Sensitivity (Malassezia pachydermatis) of the same compound?
A: 10 to 585 µg/mL

Q: And the MIC/Sensitivity (Proteus mirabilis)?
A: 146 to 292 µg/mL

Q: What about the MIC/Sensitivity [8] of the same compound?
A: 4749.9564 mg/mL (≈ 31600 mM)

Q: And the MIC/Sensitivity (Candida albicans [9])?
A: 43.75 to 250 µg/mL

Q: What about the “median MIC” value (Candida auris; C. auris, ref Shaban et al. (2020)) of the same compound?
A: 125 µg/mL

Q: And the MIC (Candida auris; [18])?
A: 125 µg/mL (≈ 0.832 mM)

Q: What about the MIC/Sensitivity (Candida auris; [18]) of the same compound?
A: 125 µg/mL (≈ 0.832 mM)

Q: What about the MIC/Sensitivity (Candida glabrata; Candida glabrata, ref Sharifzadeh et al. 2019, Iraji et al. 2020, Biernasiuk et al. 2022, Stringaro et al. 2022) of the same compound?
A: 62.50 to 195 µg/mL

Q: What about the FICI (Candida glabrata; with voriconazole, C. glabrata, ref Sharifzadeh et al. (2019)) of the same compound?
A: 0.412–0.625

Q: And the MIC/Sensitivity (Candida krusei)?
A: 87.50 to 125 µg/mL

Q: And the MIC/Sensitivity (Candida tropicalis)?
A: 97.5 µg/mL (≈ 0.649 mM)

Q: And the Mechanisms of action [10]?
A: • Cell membrane destruction • Leakage of the intercellular pool • Anti-biofilm properties • Increased extracellular K+ ions concentrations

Q: And the Mechanisms of action (Salmonella Thyphimurium)?
A: • Anti-inflammatory effects • Anti-oxidant properties • Enhanced epithelial barrier integrity • Reduction of bacterial translocation • Improved transepithelial electrical resistance • Inhibited bacterial growth

Q: What about the Mechanisms of action [11] of the same compound?
A: • Disintegration of bacterial cell membranes • Elevation of reactive oxygen species levels • Protected macrophage cells from bacterial invasion • Increased the release of K+ ions, ATP, and cellular DNA • Anti-biofilm properties

Q: What about the Mechanisms of action (Candida albicans [12]) of the same compound?
A: • Reduced proteinase production

Q: And the MIC90 (staphylococcal isolates)?
A: 146 to 200 µg/mL

Q: And the MIC [13]?
A: 130 to 260 µg/mL

Q: And the MIC (various microorganisms)?
A: 0.99 to 15.81 mM

Q: What about the MIC (Salmonella Typhimurium) of the same compound?
A: 1.87 mM (≈ 281 µg/mL)

Q: And the MIC (Candida species)?
A: 97.5 to 195 µg/mL

Q: And the MIC [14]?
A: 250–1,000 μg/ml

Q: And the MIC [15]?
A: 1,000 μg/ml

Q: And the virus release rate (HSV-2)?
A: 33.67%

Q: What about the IC50 (HIV-1; HIV-1) of the same compound?
A: 16 µM

Q: And the “reduction of viral infectivity” value (HIV-1; pretreatment of HIV)?
A: 60.6%

Q: And the MIC in combination [16]?
A: 60 to 250 µg/mL

Q: And the efflux pump inhibition (TetK efflux pump)?
A: did not act as efflux pump inhibitors

Q: And the effect on biofilms [17]?
A: inhibited biofilm formation and disrupted pre-formed biofilms
